Results from publication PMC2908543, “Uropathogenic Escherichia coli Modulates Immune Responses and Its Curli Fimbriae Interact with the Antimicrobial Peptide LL-37” (PLoS Pathogens, 2010).
Entries after “also recorded” stand apart in the source; their conditions may differ. Read-outs that look alike come from different tables or passages of the source.

Experiments:
[1] = test system: CsgA fiber formation; experiment: CsgA fiber formation, Thioflavin T, confocal microscopy; format: biochemical, Escherichia coli
Description: CsgA-His6 and CsgG, a lipoprotein that is required for CsgA secretion, were overexpressed in LSR12 (C600::csg). The purification procedure of recombinant CsgA-His6 was performed as previously described with some modifications. The filtrate was incubated with nickel-nitrilotriacetic acid (Ni-NTA) agarose (Invitrogen) for 1 h at 4°C with shaking, centrifuged at 200×g for 5 min and transferred to a polyprep chromatography column (Bio-Rad, Hercules, CA, USA). To confirm protein identity of CsgA-His6, the isolated protein was prepared and subjected to SDS-PAGE as described below, and thereafter the protein was transferred from the gel to a polyvinylidene fluoride (PVDF) membrane (Invitrogen) at 160 mA for 60 min. The band of 15 kDa, corresponding to the molecular weight of CsgA-His6, was excised from the membrane stained with Coomassie Blue and analysed with N-terminal sequence analysis as has been described. Since it has previously been shown that CsgA-His6 has the same polymerizing properties as wild-type CsgA [59], we refer to CsgA-His6 as CsgA.
Recombinant monomeric CsgA was mixed with equimolar LL-37, sLL-37 or VIP and 20 µM ThT, and incubated over night at 37°C, washed twice, and suspended in 10 mM Kpi, pH 7.2 before mounting in ProLong Gold antifade mounting medium (Invitrogen). Images were acquired on a Leica TCS SP5 confocal microscope using a 20× objective. Fluorescence intensity was quantified using ImageJ software. The difference in fluorescence intensity of CsgA with and without peptides was calculated and corrected for the contribution of fluorescence from the peptides themselves.

[2] = molecular target: T1, monomeric CsgA (Escherichia coli, UniProt P28307); experiment: Surface plasmon resonance, monomeric CsgA; details: monomeric CsgA immobilized (2000 response units), 0.1 µM peptide, 20 µl/min for 3 min, HBS-EP, Biacore 3000; binding constants not determinable
T1 construct: made in house; host or cells: E. coli LSR12 (C600::csg), co-expressed with CsgG
T1 sequence (P28307 21-151): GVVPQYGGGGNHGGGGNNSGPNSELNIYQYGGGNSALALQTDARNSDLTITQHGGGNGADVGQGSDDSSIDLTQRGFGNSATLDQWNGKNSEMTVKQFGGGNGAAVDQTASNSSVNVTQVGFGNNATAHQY
Description: (§1) Binding analysis of LL-37 to both monomeric and polymeric CsgA was performed with surface plasmon resonance (Biacore 3000 instrument; Biacore AB, Uppsala, Sweden). Both monomeric and polymeric CsgA was immobilized on a CM5 sensor chip (Biacore AB) surface by amine coupling. The chip surface was normalized in 70% glycerol and lanes on the chip were activated with injection of 35 µL 0.05 M N-hydroxysuccinimide (NHS)/0.2 M N-ethyl-N′-[3-dimethylamino) propyl]carbodiimide (EDC). Polymeric or monomeric CsgA (1 µM in 10 mM sodium acetate, pH 4.5) was then immobilized on the chip to 7000 response units and 2000 response units, respectively. After immobilization, the lanes were subjected to 60 µL ethanolamine (1 M, pH 8.5) to deactivate remaining activated carboxylic groups. One lane, activated and deactivated, was used as negative control (without addition of CsgA). Standard Biacore HBS-EP (Biacore AB) was utilized as running buffer, and 0.1 µM LL-37, sLL-37 or VIP were injected at 20 µl/min for 3 min. The surface was regenerated after each cycle with 100 mM HCl.

[3] = test system: E. coli strain No. 12 and isogenic mutants; format: cell-based, Escherichia coli; details: for IC50: initially grown in biofilm (LB plates without salt), 10^5 CFU/ml, 0.6 µM to 20 µM peptide in 2-fold dilutions, LB broth without salt, 20 h, Alamar blue 570 nm, two experiments in triplicates, read-out: IC50 (concentration at which bacterial growth was inhibited to 50%)
Description: For further investigation, E. coli isolate No. 12 from a child with pyelonephritis was chosen. This was a typical isolate expressing both curli and cellulose as well as type 1 fimbriae and yielding an approximately median level of biofilm as measured on microtiter plates. One-step knockout of bcsA and csgBA was carried out according to the protocol of Datsenko and Wanner with modifications, [50]. The following mutants were constructed using oligos listed in Table 1; WE1 bcsA::Cm, deficient in cellulose production; WE11 csgBA::Cm, deficient in curli production; and WE16 csgBA bscA::Cm, deficient in both cellulose and curli production. Expression of curli and cellulose in strain No. 12 was confirmed by these knockouts. Production of type 1 fimbriae under the culture conditions used for experiments was confirmed by yeast agglutination (see below).
The susceptibility of wild-type and mutant E. coli strains to synthetic LL-37 and mCRAMP (Innovagen AB, Lund, Sweden) was determined using a broth microdilution method. Briefly, bacteria were grown overnight at 37°C on LB plates with or without salt, inhibiting or promoting the formation of biofilm, respectively. Then, bacteria were suspended in PBS and diluted in LB broth without salt in a concentration of 10^5 CFU/ml. The bacterial concentration was verified by viable count after serial dilutions in PBS. Bacteria (90 µl suspension) were grown in 96-well plates in the presence of 10 µl aqueous solution of synthetic LL-37 or mCRAMP in final concentrations ranging from 0.6 µM to 20 µM in 2-fold dilutions. After 20 h, bacterial viability was measured colorimetrically by reduction of Alamar blue (BioSource International, Camarillo, CA, USA) for 1 h at 37°C [57]. The IC50 was determined as the peptide concentration that gave 50% reduction of the absorbance at 570 nm relative to bacteria grown without peptide.

[4] = molecular target: T2, polymeric CsgA (Escherichia coli, UniProt P28307); experiment: Surface plasmon resonance, polymeric CsgA; details: polymeric CsgA immobilized (7000 response units), 0.1 µM peptide, 20 µl/min for 3 min, HBS-EP, Biacore 3000; binding constants not determinable
T2 construct: made in house; host or cells: E. coli LSR12 (C600::csg), co-expressed with CsgG
T2 sequence (P28307 21-151): as above
Description: as §1

SMILES: CC[C@H](C)[C@H](NC(=O)[C@H](CCCCN)NC(=O)[C@H](CCC(=O)O)NC(=O)[C@H](CCCCN)NC(=O)[C@H](CO)NC(=O)[C@H](CCCCN)NC(=O)[C@H](CCCNC(=N)N)NC(=O)[C@H](Cc1ccccc1)NC(=O)[C@H](Cc1ccccc1)NC(=O)[C@H](CC(=O)O)NC(=O)CNC(=O)[C@H](CC(C)C)NC(=O)[C@@H](N)CC(C)C)C(=O)NCC(=O)N[C@@H](CCCCN)C(=O)N[C@@H](CCC(=O)O)C(=O)N[C@@H](Cc1ccccc1)C(=O)N[C@@H](CCCCN)C(=O)N[C@@H](CCCNC(=N)N)C(=O)N[C@H](C(=O)N[C@H](C(=O)N[C@@H](CCC(N)=O)C(=O)N[C@@H](CCCNC(=N)N)C(=O)N[C@H](C(=O)N[C@@H](CCCCN)C(=O)N[C@@H](CC(=O)O)C(=O)N[C@@H](Cc1ccccc1)C(=O)N[C@@H](CC(C)C)C(=O)N[C@@H](CCCNC(=N)N)C(=O)N[C@@H](CC(N)=O)C(=O)N[C@@H](CC(C)C)C(=O)N[C@H](C(=O)N1CCC[C@H]1C(=O)N[C@@H](CCCNC(=N)N)C(=O)N[C@H](C(=O)N[C@@H](CCC(=O)O)C(=O)N[C@@H](CO)C(=O)O)[C@@H](C)O)C(C)C)[C@@H](C)CC)C(C)C)[C@@H](C)CC [LL-37]
- fluorescence relative to CsgA alone ([1]; CsgA with equimolar peptide (1∶1), 20 µM ThT, 20 h at 37°C, CsgA alone = 1 arbitrary unit, corrected for peptide fluorescence, two experiments): 0.05 arbitrary units
- inhibition of CsgA fiber formation versus sLL-37 and VIP ([1]; molar ratio 1∶1, P = 0.007 versus sLL-37 and P = 0.011 versus VIP): significantly stronger than the effect of sLL-37; also recorded: evidently stronger for LL-37
- binding / association and dissociation by SPR [2]: higher association with CsgA than the control peptides; also recorded: stronger association and lower dissociation rates
- difference in resistance between the strains ([3]; bacteria pre-grown planktonically, curli expression suppressed (data not shown)): no significant difference in the resistance
- IC50 ([3]; curliated strains): 12 µM
- IC50 ([3]; non-curliated strains): 6 to 7 µM
- binding / association and dissociation by SPR [4]: higher association with CsgA than the control peptides; also recorded: stronger association and lower dissociation rates
